The text below walks through data of ChEMBL document CHEMBL1201862, “PubChem BioAssay data set” (2004).

Assay [1] can be described thus: Luminescence Cell-Based Dose Response HTS to Identify Activators of Luciferase Translation or Activity in H4 […] Cells. [Related pubchem assays: 1829 (Project Summary), 1814 (Primary HTS)]. Format: functional.
Assay [2] addresses Intestinal-type alkaline phosphatase (Homo sapiens, UniProt P09923). Briefly: Dose Response confirmation of uHTS hits from a small molecule inhibitors of human intestinal alkaline phosphatase via a luminescent assay. [Related pubchem assays (depositor defined):AID2544, AID2574]. In kind it is functional.
Assay [3] deals with Luciferin 4-monooxygenase (Photinus pyralis, UniProt P08659). Briefly: inhibition of purified Photinus pyralis luciferase – biochemical, luminescence, dose response (AID 1891).
Assay [4] is described as follows: Luminescence Cell-Based Dose Confirmation HTS to Identify Inhibitors of Platelet Dense Granule Release. [Related pubchem assays: 1663 (Primary HTS), 1678 (Summary of Project)]. In kind it is functional.
Assay [5] can be described thus: Luminescence Cell-Based Dose Retest to Confirm Inhibitors of Cancer Stem Cells. [Related pubchem assays (depositor defined):AID2717, AID2721]. In kind it is functional. Particulars: Homo sapiens.
In assay [6] the target is Lysosomal acid glucosylceramidase (Homo sapiens, UniProt P04062). The assay is described as follows: Dose response cell-based high throughput screening assay to identify enhancers of beta-glucosidase activity. [Related pubchem assays: 784 ]. Format: functional.
Assay [7] addresses Voltage-dependent T-type calcium channel subunit alpha-1H (Homo sapiens, UniProt O95180). In kind it is functional.
Assay [8] in a line: blockers of HIV-1 ZM109 envelope-driven cell-cell fusion – HeLa effector, CEM target cells, luciferase, cherry-pick, dose response (AID 652058).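 Note: luciferase signal from HIV-1 Env mediated cell-cell fusion of effector and target cells.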 In kind it is functional, cell-based.
Assay [9] can be described thus: Luminescence Cell-Based Dose Response HTS to Identify Inhibitors of 5'UTR Stem-Loop Driven Prion Protein mRNA Translation in H4 Neuroglioblastoma Cells. [Related pubchem assays: 1827 (Project Summary), 1813 (Primary HTS)]. Format: functional.
A short description of assay [10]: HIV-1 AD8 envelope cell-cell fusion blockers – cherry-pick, dose response (AID 652062).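 Note: luciferase signal from cell-cell fusion driven by HIV-1 clade B AD8 Env; potency is for inhibitors of fusion seen as a drop in luminescence.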 Format: functional, cell-based.
Assay [11] deals with Streptococcus sp. 'group A'. The assay is described as follows: Streptococcus pyogenes SK(-)GAS viability under kanamycin – luminescence, BacTiterGlo, confirmation, counter-screen for streptokinase expression inhibitor project, dose response (AID 1900). Format: functional, organism-based.
Assay [12] can be described thus: luciferase reporter signal suppression in cells – H4 neuroglioma cells, luminescence, dose response (AID 1990). In kind it is functional, cell-based.
Assay [13] can be described thus: alpha-synuclein stem-loop luciferase translation blockers – H4 neuroglioma cells, luminescence, confirmation (AID 1988). Format: functional, cell-based.
For assay [14], the target named is T1, SUMO-activating enzyme (Homo sapiens, UniProt Q9UBT2). The assay is described as follows: blockers of UBC9-mediated SUMO conjugation – biochemical, AlphaScreen, SUMOylation inhibitor project, confirmation (AID 2018). In kind it is functional.
Another assay relates to Streptococcus. Briefly: GAS UMAA2166 growth inhibition – luminescence, BacTiterGlo, counter-screen for streptokinase expression inhibitor project, dose response (AID 1915).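 Note: potency for reduction of bacterial viability or growth.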 In kind it is functional, organism-based.
Assay [15] deals with T1, SUMO-activating enzyme. Briefly: blockers of SAE1/SAE2–UBC9 SUMO transfer – biochemical, HTRF, uHTS, primary screen (AID 2006). In kind it is protein-complex assay.
Assay [16] is described as follows: off-target signal loss in HeLa-CEM21 co-culture – HeLa F-luc CTL cells, cherry-picked, counter-screen for HIV-1 Env fusion inhibitor project, dose response (AID 652040).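 Note: potency for signal decrease marking cytotoxic or nonspecific inhibition.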 Format: functional, cell-based.
Assay [17] is described as follows: blockers of HIV-1 envelope-mediated cell-cell fusion – cherry-pick, dose response (AID 652057). Format: functional, cell-based.
The next assay has as its target T2, Hexokinase HKDC1 (Homo sapiens, UniProt Q2TB90).
T2 sequence (Q2TB90 whole entry): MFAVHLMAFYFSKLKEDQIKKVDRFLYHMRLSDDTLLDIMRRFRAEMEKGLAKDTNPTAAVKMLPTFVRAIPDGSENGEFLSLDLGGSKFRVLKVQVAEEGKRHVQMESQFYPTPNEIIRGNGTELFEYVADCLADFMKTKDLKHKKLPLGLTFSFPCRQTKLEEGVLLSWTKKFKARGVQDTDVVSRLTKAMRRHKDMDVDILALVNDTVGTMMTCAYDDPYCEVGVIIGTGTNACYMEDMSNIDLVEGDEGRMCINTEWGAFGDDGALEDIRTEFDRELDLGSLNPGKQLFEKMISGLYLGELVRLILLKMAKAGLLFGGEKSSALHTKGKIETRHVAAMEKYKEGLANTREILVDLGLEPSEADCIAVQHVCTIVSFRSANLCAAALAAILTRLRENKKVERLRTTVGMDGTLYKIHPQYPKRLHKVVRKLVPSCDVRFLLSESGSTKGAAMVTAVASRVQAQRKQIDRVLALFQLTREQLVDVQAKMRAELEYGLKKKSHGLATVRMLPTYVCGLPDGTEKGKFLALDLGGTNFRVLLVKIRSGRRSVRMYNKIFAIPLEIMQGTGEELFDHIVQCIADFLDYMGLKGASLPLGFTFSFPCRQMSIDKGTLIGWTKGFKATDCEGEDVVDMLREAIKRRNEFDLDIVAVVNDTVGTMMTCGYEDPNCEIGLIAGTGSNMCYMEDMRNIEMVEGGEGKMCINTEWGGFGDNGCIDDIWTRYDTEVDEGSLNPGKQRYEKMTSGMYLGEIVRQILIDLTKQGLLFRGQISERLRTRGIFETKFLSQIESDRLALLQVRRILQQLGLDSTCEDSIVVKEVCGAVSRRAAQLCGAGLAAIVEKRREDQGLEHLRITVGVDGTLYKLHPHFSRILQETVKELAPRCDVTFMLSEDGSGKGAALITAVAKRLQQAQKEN
The assay is described as follows: inhibition of HKDC1 glucose phosphorylation – biochemical, W721R variant, dose response (AID 504729). Format: functional.

Another assay addresses Procathepsin L (Homo sapiens, UniProt P07711).
For assay [18], the target named is T3, Rac GTPase-activating protein 1 (Homo sapiens, UniProt Q9H0H5).
T3 sequence (Q9H0H5 whole entry): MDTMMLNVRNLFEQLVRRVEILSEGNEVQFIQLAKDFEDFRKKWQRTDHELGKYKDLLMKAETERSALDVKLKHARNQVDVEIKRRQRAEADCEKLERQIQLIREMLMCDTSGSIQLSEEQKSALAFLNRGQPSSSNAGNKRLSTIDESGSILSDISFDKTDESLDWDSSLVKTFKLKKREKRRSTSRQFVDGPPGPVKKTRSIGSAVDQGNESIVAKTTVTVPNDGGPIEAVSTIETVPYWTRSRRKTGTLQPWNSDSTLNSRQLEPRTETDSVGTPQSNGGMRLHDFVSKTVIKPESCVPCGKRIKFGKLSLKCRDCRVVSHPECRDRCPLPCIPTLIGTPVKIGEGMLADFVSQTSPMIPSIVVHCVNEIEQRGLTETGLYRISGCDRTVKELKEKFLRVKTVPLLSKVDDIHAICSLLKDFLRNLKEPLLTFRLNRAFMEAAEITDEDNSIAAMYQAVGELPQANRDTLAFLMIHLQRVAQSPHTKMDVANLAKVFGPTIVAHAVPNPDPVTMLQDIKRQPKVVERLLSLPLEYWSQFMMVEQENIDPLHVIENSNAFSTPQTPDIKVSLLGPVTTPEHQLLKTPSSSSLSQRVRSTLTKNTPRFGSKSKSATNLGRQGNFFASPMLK
The assay is described as follows: blockers of MgcRacGAP-driven Rac1 GTP hydrolysis – biochemical, ADP Hunter fluorescence, primary and confirmatory, confirmation (AID 624330). Format: functional.

Another assay deals with Albumin (Bos taurus, UniProt P02769). Briefly: Counterscreen for inhibitors of T-cell receptor (TCR)-CD3 interaction: Fluorescence-based biochemical high throughput dose response assay to identify inhibitors of T-cell receptor (TCR)-CD3 interaction using a TAMRA-labeled BSA probe. In kind it is functional.
The target of assay [19] is T4, Histone-lysine N-methyltransferase NSD2 (Homo sapiens, UniProt O96028).
T4 sequence (O96028 whole entry): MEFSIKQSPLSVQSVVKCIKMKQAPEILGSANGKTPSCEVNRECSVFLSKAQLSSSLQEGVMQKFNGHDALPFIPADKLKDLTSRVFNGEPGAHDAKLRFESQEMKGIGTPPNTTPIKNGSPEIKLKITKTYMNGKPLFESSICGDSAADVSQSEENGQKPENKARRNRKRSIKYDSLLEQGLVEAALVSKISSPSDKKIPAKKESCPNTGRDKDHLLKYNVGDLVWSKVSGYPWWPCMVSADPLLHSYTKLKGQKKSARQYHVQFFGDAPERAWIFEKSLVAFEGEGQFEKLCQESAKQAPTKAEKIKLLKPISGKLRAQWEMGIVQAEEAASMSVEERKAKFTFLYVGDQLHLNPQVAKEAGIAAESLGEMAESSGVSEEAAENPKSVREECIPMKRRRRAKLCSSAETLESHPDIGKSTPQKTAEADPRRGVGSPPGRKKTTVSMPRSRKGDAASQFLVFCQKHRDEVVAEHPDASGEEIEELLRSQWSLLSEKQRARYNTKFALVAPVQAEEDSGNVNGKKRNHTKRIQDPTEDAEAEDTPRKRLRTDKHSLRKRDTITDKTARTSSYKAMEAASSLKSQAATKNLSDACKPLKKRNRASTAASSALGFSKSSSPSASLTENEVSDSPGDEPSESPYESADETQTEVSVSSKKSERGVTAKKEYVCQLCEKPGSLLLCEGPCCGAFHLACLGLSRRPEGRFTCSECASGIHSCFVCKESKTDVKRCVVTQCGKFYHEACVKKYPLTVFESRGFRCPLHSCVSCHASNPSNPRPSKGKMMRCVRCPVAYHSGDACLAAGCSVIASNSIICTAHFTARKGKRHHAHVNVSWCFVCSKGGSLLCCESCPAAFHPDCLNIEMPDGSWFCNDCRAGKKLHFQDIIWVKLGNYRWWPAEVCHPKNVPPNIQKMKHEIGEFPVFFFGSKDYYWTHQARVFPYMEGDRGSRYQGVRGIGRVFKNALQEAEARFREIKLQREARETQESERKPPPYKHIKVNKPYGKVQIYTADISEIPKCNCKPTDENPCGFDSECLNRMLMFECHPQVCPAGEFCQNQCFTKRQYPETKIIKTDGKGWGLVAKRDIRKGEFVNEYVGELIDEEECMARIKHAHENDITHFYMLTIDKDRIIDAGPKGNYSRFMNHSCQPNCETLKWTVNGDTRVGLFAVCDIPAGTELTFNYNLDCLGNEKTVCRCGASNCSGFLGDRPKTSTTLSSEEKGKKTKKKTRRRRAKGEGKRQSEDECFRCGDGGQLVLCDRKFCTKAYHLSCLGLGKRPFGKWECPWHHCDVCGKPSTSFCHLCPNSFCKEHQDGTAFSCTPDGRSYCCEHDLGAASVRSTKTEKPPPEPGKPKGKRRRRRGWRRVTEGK
Format: biochemical.

A further assay deals with T5, Aspartyl aminopeptidase (Plasmodium falciparum 3D7, UniProt Q8I2J3).
T5 sequence (Q8I2J3 whole entry): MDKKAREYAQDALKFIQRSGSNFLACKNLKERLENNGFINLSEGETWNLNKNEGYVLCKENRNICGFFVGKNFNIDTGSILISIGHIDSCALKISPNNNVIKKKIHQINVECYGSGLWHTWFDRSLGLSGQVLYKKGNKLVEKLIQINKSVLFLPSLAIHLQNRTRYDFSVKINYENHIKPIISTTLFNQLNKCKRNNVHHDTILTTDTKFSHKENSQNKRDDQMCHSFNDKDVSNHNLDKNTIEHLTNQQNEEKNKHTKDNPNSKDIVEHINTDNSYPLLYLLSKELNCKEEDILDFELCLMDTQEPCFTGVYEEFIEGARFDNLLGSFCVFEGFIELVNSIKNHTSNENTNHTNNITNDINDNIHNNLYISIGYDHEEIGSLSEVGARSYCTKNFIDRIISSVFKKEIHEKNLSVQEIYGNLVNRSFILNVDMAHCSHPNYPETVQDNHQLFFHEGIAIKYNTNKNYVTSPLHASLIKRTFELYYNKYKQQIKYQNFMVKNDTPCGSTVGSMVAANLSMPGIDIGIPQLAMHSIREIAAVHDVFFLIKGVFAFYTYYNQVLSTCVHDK

The source made the active and inactive calls. Where only a bound is given, the exact number is not on record here.

Lysosomal acid glucosylceramidase, sequence (P04062 whole entry): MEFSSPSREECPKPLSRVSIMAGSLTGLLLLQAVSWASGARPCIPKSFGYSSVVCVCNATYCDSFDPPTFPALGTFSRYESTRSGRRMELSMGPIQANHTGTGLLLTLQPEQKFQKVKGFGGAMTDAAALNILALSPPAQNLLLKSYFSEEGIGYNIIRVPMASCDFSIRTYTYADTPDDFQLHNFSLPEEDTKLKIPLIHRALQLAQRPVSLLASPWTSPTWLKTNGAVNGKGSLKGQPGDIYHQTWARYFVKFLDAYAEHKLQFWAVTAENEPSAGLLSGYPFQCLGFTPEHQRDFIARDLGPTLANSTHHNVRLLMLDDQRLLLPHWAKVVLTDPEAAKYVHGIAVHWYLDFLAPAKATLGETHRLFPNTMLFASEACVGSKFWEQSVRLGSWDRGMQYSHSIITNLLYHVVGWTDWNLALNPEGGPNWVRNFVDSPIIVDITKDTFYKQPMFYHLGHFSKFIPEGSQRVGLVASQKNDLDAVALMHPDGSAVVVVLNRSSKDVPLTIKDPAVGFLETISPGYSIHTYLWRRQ
T1 sequence (Q9UBE0 whole entry): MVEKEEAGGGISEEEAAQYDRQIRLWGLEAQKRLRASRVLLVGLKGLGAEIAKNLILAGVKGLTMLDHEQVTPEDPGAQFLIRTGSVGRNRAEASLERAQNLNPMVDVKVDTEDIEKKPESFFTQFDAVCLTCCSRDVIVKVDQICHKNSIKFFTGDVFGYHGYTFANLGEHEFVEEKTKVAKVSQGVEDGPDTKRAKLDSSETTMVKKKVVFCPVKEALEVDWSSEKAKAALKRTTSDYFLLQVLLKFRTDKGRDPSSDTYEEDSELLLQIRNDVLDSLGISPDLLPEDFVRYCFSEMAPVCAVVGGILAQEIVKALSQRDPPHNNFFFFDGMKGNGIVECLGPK
T1 sequence (Q9UBT2 whole entry): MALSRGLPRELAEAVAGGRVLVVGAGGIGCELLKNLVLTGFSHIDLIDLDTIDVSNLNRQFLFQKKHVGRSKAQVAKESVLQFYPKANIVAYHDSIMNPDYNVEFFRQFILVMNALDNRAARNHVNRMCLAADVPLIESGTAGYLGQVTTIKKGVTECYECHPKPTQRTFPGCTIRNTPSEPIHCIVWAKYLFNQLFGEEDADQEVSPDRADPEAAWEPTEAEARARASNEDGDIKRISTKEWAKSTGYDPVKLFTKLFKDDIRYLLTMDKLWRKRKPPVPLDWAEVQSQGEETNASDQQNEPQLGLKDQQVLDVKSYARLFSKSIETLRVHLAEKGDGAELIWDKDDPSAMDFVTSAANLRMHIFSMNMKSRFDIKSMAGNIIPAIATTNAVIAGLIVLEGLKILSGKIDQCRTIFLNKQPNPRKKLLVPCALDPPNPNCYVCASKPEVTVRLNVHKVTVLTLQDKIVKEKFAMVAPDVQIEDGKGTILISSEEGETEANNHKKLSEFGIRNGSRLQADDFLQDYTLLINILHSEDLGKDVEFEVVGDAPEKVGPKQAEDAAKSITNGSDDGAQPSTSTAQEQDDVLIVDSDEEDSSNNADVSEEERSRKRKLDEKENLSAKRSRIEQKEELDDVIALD
Intestinal-type alkaline phosphatase, sequence (P09923 whole entry): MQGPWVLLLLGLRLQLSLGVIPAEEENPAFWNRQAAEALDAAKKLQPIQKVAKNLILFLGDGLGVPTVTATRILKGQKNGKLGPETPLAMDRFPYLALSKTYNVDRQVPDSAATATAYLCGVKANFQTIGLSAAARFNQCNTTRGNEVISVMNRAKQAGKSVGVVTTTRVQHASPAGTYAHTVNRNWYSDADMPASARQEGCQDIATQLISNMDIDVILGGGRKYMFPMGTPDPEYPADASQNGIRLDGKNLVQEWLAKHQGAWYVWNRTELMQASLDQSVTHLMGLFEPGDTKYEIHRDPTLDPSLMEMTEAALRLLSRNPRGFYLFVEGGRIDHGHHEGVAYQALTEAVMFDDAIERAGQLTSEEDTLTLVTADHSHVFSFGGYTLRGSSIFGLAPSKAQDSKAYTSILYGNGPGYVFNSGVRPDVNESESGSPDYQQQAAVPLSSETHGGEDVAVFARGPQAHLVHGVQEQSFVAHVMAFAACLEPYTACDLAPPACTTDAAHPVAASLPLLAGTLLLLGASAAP
Voltage-dependent T-type calcium channel subunit alpha-1H, sequence (O95180 whole entry, the tested form may be a part): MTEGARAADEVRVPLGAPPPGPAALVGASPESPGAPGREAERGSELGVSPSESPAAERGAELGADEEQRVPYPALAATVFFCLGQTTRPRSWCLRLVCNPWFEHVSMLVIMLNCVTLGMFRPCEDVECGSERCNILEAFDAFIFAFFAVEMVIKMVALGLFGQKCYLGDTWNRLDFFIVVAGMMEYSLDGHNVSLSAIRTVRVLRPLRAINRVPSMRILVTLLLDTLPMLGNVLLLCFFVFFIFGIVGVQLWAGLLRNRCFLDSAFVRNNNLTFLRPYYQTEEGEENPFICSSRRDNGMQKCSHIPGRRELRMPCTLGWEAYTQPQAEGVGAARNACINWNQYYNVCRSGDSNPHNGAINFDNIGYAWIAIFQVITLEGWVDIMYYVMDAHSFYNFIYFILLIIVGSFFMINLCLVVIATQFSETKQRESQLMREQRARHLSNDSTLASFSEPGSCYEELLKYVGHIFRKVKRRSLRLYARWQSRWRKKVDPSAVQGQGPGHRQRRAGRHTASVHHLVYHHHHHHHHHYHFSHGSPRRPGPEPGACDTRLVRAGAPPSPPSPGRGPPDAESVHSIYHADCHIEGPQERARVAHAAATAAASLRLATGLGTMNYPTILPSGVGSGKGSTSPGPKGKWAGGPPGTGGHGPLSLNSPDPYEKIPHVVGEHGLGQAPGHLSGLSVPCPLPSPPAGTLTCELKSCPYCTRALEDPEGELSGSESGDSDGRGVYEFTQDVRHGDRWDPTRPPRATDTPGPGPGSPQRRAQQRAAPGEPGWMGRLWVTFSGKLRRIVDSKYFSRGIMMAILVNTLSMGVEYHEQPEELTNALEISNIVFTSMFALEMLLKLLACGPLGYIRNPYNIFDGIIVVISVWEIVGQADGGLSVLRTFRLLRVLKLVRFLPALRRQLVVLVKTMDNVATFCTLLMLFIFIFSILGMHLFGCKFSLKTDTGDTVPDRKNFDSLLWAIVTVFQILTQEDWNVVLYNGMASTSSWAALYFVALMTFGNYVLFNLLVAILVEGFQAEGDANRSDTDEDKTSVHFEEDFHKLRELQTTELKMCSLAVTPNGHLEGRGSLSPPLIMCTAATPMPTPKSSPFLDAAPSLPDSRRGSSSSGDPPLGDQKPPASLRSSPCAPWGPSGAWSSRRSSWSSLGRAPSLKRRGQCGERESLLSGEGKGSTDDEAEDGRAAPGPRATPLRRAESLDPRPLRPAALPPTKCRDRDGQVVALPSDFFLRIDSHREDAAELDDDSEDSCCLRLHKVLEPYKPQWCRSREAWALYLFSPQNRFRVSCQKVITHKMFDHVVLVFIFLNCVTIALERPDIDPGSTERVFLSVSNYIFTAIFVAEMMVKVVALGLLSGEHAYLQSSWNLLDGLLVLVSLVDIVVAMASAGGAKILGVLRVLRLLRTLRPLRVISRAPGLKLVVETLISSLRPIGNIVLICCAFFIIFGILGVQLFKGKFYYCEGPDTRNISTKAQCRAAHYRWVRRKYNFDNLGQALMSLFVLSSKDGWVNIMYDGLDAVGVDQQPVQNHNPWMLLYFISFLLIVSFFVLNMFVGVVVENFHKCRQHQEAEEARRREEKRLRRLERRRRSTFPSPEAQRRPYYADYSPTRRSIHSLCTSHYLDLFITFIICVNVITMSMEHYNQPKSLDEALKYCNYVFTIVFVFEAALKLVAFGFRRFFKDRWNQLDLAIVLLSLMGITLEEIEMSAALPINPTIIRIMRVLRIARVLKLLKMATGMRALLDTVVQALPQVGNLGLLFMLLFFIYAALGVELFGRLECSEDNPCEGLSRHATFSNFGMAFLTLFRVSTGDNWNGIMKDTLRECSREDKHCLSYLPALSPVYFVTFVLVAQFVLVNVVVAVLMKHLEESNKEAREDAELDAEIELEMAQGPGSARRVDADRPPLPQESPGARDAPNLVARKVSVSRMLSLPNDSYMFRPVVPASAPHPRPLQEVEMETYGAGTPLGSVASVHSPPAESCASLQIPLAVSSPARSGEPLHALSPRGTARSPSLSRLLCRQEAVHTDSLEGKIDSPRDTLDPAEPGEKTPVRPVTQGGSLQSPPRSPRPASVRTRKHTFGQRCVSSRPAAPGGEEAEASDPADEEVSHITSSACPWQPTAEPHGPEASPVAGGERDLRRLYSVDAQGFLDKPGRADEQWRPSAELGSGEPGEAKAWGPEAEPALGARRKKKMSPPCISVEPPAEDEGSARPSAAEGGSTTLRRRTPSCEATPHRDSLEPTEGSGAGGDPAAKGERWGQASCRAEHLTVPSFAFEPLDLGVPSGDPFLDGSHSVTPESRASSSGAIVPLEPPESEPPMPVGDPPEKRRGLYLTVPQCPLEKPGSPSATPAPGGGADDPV
Procathepsin L, sequence (P07711 whole entry): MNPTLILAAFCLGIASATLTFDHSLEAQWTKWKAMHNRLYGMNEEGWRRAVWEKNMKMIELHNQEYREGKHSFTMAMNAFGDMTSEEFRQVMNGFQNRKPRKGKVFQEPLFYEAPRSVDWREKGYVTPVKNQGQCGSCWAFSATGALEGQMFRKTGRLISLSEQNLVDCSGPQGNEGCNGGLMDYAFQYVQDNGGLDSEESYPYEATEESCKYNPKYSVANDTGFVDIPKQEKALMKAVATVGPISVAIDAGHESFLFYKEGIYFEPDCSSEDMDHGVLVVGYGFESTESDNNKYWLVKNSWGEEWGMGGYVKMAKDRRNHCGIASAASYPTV

Consider `CCOC(=O)c1cnc(SCC(=O)c2ccccc2)nc1N`, for which the EC50 in assay [1] was 0.195 µM (active). The IC50 in assay [2] was > 100 µM (inactive).

Turning to `COC(=O)c1ccc(C(=O)OC)c(NC(=O)Nc2ccc3c(c2)OCO3)c1`, the EC50 in assay [3] and in assay [4] was > 112 µM (not active) throughout. The IC50 in assay [2] is > 100 µM (inactive).

Consider `N#CCc1ccc(NC(=O)Nc2cccc(Cl)c2)cc1`, for which the AC50 in assay [5] is 5.19 µM (active). For the same compound, the EC50 in [6] is recorded as > 10 µM (not active).

`Cc1ccn2cc(C(=O)Nc3ccccc3N3CCOCC3)nc2c1`: the EC50 in assay [6] is > 50 µM (not active).

`Cc1ccc(NC(=O)c2cc(S(=O)(=O)N3CCCCC3)cs2)cc1`: in assay [7], the EC50 is 10.3 µM (active).

Take `CCCCCCCn1c(NC(=O)CC)nc2ccccc21`: the AC50 in [8] is 47.3 µM (active); in assay [10], 39.4 µM (active); in assay [16], > 70 µM (inactive); in assay [17], 34.3 µM (active). Moreover, the EC50 in assay [9] was 13.8 µM (active); in assay [11] it was 2.13 µM (active); in assay [12], 11.4 µM (active); in [13], 9.8 µM (active); with Streptococcus, 10.1 µM (active). The results for the IC50 at SUMO-activating enzyme [14] and on SUMO-activating enzyme [15] were 1.62 µM (active) and 7.82 µM (active), respectively.

As to `c1ccc(OCCSc2nc3ccccc3[nH]2)cc1`, the EC50 in [7] was 5.96 µM (active).

Consider `O=C(O)c1ccc2ncsc2c1`, for which, at Hexokinase HKDC1, the IC50 is 7.69 µM (active).

`COc1ccc2nc(C)cc(SCC(=O)N/N=C/c3ccc(O)c(O)c3)c2c1`: the IC50 against Procathepsin L is > 59.6 µM (not active); in [18] it was 23.9 µM (active); on Albumin, > 94.1 µM (inactive); at Aspartyl aminopeptidase, 2.48 µM (active). Further, the AC50 in [19] was > 20 µM (inactive).
